Reference: US8563542B2 (Cyclacel Limited, priority 2007, dated 2013)

Columns and labels:
[1] = molecular target: PLK1 (Homo sapiens, UniProt P53350); assay: PLK1 protein kinase assay (CDC25C phosphorylation, [γ-32P]-ATP); assay type: biochemical; details: Table 2, PLK1 IC50; class symbols; read-out: PLK1 IC50
[2] = molecular target: T1, AA (Homo sapiens, UniProt O14965); assay: AA IC50 (Table 1; no method given); assay type: biochemical; details: Table 2, AurA IC50; class symbols; read-out: AurA IC50
T1 sequence (O14965 1-403): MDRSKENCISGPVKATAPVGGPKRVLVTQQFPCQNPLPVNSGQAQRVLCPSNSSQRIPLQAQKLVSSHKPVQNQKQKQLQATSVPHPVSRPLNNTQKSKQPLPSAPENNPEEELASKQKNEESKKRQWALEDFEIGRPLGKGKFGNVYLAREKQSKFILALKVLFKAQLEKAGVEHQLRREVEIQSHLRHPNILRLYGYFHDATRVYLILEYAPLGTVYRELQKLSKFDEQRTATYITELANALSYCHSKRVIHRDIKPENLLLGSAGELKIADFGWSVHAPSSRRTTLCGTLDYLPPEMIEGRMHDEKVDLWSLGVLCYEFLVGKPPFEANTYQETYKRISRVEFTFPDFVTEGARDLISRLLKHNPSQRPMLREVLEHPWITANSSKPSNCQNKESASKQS

Sequence of PLK1 (P53350 whole entry): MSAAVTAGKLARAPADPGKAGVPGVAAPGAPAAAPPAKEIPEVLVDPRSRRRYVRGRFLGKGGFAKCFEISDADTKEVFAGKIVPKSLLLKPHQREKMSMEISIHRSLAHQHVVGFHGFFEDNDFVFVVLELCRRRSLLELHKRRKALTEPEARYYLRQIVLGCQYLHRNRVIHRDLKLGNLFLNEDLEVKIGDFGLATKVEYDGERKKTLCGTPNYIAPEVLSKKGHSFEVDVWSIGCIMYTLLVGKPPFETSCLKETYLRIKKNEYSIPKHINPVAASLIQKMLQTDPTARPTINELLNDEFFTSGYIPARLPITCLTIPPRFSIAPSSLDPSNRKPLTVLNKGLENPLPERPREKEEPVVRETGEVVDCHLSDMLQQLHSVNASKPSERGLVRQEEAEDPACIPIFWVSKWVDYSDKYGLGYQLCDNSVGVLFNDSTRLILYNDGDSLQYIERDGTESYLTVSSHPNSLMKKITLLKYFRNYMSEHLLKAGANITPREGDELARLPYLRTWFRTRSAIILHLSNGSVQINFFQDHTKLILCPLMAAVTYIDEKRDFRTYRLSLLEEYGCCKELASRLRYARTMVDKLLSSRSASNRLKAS

Structure (SMILES) | IC50 [1] | IC50 [2]
CN1C(=O)CCN(C2CCCC2)c2nc(Nc3ccc4c(c3)CC(=O)N4)ncc21 [compound 173, 9-Cyclopentyl-5-methyl-2-(2-oxo-2,3-dihydro-1H-indo1-5-ylamino)-5,7,8,9-tetrahydro-pyrimido[4,5-b][1,4]diazepin-6-one] | < 10 µM | < 0.1 µM
Cc1cc(C(=O)O)ccc1Nc1ncc2c(n1)N(C1CCCC1)CCC(=O)N2C [compound 174, 4-(9-Cyclopentyl-5-methyl-6-oxo-6,7,8,9-tetrahydro-5H-pyrimido[4,5-b][1,4]diazepin-2-ylamino)-3-methyl-benzoic acid] | < 1 µM | < 10 µM
CN1C(=O)CCN(C2CCCC2)c2nc(Nc3ccc(C(=O)NC4CC4)cc3)ncc21 [compound 176, 4-(9-Cyclopentyl-5-methyl-6-oxo-6,7,8,9-tetrahydro-5H-pyrimido[4,5-b][1,4]diazepin-2-ylamino)-N-cyclopropyl-benzamide] | < 1 µM | < 0.1 µM
CN1C(=O)CCN(C2CCCC2)c2nc(Nc3cccc(CN4CCS(=O)(=O)CC4)c3)ncc21 [compound 177, 9-Cyclopentyl-2-[3-(1,1-dioxo-thiomorpholin-4-ylmethyl)-phenylamino]-5-methyl-5,7,8,9-tetrahydro-pyrimido[4,5-b][1,4]diazepin-6-one] | < 1 µM | < 0.1 µM
CN1C(=O)CCN(C2CCCC2)c2nc(Nc3ccc(NC(=O)C4CC4)cc3)ncc21 [compound 178, Cyclopropanecarboxylic acid [4-(9-cyclopentyl-5-methyl-6-oxo-6,7,8,9-tetrahydro-5H-pyrimido[4,5-b][1,4]diazepin-2-ylamino)-phenyl]-amide] | < 1 µM | < 0.1 µM
Cc1cc(Nc2ncc3c(n2)N(C2CCCC2)CCC(=O)N3C)ccc1NC(=O)C1CC1 [compound 179, Cyclopropanecarboxylic acid [4-(9-cyclopentyl-5-methyl-6-oxo-6,7,8,9-tetrahydro-5H-pyrimido[4,5-b][1,4]diazepin-2-ylamino)-2-methyl-phenyl]-amide] | < 10 µM | < 0.1 µM

Continued, values first:

IC50 [1] | IC50 [2] | Structure (SMILES)
< 10 µM | < 0.1 µM | CN1CCC(NC(=O)CCc2ccc(Nc3ncc4c(n3)N(C3CCCC3)CCC(=O)N4C)cc2)CC1 [compound 180, 3-[4-(9-Cyclopentyl-5-methyl-6-oxo-6,7,8,9-tetrahydro-5H-pyrimido[4,5-b][1,4]diazepin-2-ylamino)-phenyl]-N-(1-methyl-piperidin-4-yl)-propionamide]
< 10 µM | < 0.1 µM | CN1CCC(NC(=O)Cc2ccc(Nc3ncc4c(n3)N(C3CCCC3)CCC(=O)N4C)cc2)CC1 [compound 181, 2-[4-(9-Cyclopentyl-5-methyl-6-oxo-6,7,8,9-tetrahydro-5H-pyrimido[4,5-b][1,4]diazepin-2-ylamino)-phenyl]-N-(1-methyl-piperidin-4-yl)-acetamide]
< 10 µM | < 10 µM | CCc1cc(C(=O)O)ccc1Nc1ncc2c(n1)N(C1CCCC1)CCC(=O)N2C [compound 192, 4-(9-Cyclopentyl-5-methyl-6-oxo-6,7,8,9-tetrahydro-5H-pyrimido[4,5-b][1,4]diazepin-2-ylamino)-3-ethyl benzoic acid]
< 0.1 µM | < 10 µM | CN1CCC(NC(=O)c2ccc(Nc3ncc4c(n3)N(C3CCCC3)CCC(=O)N4C)c(F)c2)CC1 [compound 215, 4-(9-Cyclopentyl-5-methyl-6-oxo-6,7,8,9-tetrahydro-5H-pyrimido[4,5-b][1,4]diazepin-2-ylamino)-3-fluoro-N-(1-methyl-piperidin-4-yl)-benzamide]
< 0.1 µM | < 1 µM | CN1C(=O)C2(CC2)CN(C2CCCC2)c2nc(Nc3ccc4[nH]ncc4c3)ncc21 [compound 227, 9-Cyclopentyl-2-(1H-indazol-5-ylamino)-5-methyl-5,7,8,9-tetrahydro-pyrimido[4,5-b][1,4]diazepin-3,1′-cyclopropane-6-one]
